In patent US20080201790A1, “Method and product for regulating cell responsiveness to external signals” (priority 1993, published 2008):

How the values were obtained:
B-Raf = assay: Raf activation assay in L929 cells, B-Raf; format: cell-based, murine
Description: Cell lines and culture. L929 cells (ATCC CCL1 were maintained in Dulbecco's modified Eagle's medium with 5% newborn calf serum and 5% bovine calf serum (BCS) supplemented with 100 ug/ml streptomycin and 100 U/ml penicillin. The cells were grown in 10 cm dishes at 37° C. in 7.5% CO2. Cells were made quiescent where indicated by incubation in Dulbecco's modified Eagle's medium and 0.1% bovine serum albumin for 24 h. Recombinant murine TNFα and recombinant human bFGF (147aa) were from R&D Systems, Minneapolis, Minn. Cells were pretreated where indicated with the MEK-1 inhibitor PD#098059 (Parke-Davis Pharmaceutical Corp. Ann Arbor, Mich.) for 1 h at 37° C. Cells were stimulated by incubation with the indicated cytokine or growth factor for various times at 37° C. […] JNK activity was measured using a solid state kinase assay in which glutathione S-transferase-c-Jun (1-79) (GST-JUN) cound to glutathione-Sepharose 4B beads was used to affinity purify JNK and then JNK activity was measured in an in vitro kinase assay using the sepharose bound GST-Jun as a substrate (Hibi, M., et al. (1993) Genes & Development 7:2135-2148). […] MAPK Assay MAPK activity was measured exactly as described previously (Gardner, A. M., et al. (1994) Meth. Enzymol. 238:258-270) with the exception that MonoQ FPLC fractionation was replaced by step elution from a DEAE-Sephacel column using 0.5 M NaCl in loading buffer. […]

C-Raf = assay: Raf activation assay in L929 cells, C-Raf; format: cell-based, murine

Row | Substance | activation of B-Raf (phosphorylation of kinase-inactive MEK-1) (B-Raf) | activation of C-Raf (phosphorylation of kinase-inactive MEK-1) (C-Raf)
1 | TNFα | does not significantly activate either isoform of Raf | does not significantly activate either isoform of Raf
2 | bFGF: recombinant human bFGF (147aa), basic fibroblast growth factor | activation of both B-Raf and C-Raf | activation of both B-Raf and C-Raf
